Tests used:
JMJD2C = biological target: T1, JMJD2C (Homo sapiens, UniProt Q9H3R0); experiment: Histone demethylase inhibition assay, JMJD2C; assay type: biochemical; conditions: in vitro; compared with JMJD1A
T1 sequence (Q9H3R0 1-1056): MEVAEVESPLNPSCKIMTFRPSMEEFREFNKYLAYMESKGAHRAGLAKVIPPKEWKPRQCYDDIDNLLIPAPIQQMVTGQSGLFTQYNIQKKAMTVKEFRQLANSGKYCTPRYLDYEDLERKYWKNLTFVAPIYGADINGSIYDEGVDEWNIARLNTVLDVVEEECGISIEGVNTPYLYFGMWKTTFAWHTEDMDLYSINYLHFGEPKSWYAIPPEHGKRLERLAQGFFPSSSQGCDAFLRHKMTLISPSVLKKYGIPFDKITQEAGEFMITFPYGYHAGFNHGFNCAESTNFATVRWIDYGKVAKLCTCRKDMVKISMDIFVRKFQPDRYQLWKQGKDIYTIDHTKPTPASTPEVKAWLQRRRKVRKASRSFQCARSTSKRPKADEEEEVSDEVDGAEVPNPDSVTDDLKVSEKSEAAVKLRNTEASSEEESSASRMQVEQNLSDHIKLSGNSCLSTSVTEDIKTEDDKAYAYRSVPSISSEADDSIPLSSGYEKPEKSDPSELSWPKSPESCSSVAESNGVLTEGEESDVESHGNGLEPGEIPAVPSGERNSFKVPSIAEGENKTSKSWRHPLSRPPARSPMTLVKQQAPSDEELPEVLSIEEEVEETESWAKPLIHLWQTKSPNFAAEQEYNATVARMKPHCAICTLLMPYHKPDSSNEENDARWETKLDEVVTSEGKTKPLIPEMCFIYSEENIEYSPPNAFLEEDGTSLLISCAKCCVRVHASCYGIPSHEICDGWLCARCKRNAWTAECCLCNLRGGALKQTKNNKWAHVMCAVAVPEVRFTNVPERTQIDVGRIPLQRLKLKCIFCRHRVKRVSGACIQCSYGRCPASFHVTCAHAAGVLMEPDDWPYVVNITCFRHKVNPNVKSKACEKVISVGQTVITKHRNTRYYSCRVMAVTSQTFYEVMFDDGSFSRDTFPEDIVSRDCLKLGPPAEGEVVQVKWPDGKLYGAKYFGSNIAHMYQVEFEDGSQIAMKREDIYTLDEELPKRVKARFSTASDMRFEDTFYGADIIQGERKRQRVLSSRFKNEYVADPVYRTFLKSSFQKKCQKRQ

JARID1A = JARID1A (Homo sapiens, UniProt P29375); experiment: Formaldehyde dehydrogenase-coupled assay, JARID1A; assay type: biochemical; conditions: in vitro; compared with JMJD1A
JARID1A, sequence (P29375 whole entry): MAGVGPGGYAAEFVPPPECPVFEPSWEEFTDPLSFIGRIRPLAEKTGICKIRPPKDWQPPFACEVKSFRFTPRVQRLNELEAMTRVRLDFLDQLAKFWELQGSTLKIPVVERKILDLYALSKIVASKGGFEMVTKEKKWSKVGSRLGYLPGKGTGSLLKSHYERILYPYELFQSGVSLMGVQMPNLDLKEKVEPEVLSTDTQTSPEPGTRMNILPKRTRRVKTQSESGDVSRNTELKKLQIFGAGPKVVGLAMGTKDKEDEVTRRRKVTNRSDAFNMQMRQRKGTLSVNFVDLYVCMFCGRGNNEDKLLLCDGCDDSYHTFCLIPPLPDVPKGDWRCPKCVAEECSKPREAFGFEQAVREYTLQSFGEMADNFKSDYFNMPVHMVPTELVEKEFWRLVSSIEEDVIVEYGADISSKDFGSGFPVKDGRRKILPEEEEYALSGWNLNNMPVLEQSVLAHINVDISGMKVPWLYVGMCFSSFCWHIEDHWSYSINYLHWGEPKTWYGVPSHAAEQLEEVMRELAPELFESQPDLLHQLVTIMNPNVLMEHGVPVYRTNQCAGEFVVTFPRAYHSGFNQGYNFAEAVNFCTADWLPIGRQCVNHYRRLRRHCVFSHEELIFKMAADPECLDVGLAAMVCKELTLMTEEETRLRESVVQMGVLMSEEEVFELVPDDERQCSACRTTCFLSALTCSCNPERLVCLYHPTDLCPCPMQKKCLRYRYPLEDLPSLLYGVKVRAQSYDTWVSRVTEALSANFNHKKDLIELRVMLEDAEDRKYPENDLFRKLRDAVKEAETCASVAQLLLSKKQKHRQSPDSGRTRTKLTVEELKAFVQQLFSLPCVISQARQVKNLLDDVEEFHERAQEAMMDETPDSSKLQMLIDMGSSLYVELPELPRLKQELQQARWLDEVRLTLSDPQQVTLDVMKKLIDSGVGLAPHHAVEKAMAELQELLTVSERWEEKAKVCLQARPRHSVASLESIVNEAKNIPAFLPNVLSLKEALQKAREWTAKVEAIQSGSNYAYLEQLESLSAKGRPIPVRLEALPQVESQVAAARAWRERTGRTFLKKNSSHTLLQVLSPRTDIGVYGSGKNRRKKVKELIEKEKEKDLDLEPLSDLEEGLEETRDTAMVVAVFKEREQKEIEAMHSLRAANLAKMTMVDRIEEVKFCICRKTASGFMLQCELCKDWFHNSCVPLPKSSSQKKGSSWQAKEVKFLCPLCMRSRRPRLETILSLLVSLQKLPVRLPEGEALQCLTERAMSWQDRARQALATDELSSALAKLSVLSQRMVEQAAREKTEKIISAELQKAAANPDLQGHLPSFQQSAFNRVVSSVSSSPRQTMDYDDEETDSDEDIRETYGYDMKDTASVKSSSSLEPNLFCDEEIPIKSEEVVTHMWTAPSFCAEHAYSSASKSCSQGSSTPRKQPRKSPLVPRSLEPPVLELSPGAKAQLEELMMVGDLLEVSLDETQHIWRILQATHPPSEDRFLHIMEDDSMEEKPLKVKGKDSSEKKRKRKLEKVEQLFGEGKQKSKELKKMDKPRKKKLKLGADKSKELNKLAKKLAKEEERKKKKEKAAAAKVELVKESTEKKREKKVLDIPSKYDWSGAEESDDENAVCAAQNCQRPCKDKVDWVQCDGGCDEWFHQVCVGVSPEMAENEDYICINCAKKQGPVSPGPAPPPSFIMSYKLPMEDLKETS

JMJD2A = biological target: T2, JMJD2A (Homo sapiens, UniProt O75164); experiment: Histone demethylase inhibition assay, JMJD2A; assay type: biochemical; conditions: in vitro; compared with JMJD1A
T2 sequence (O75164 1-1064): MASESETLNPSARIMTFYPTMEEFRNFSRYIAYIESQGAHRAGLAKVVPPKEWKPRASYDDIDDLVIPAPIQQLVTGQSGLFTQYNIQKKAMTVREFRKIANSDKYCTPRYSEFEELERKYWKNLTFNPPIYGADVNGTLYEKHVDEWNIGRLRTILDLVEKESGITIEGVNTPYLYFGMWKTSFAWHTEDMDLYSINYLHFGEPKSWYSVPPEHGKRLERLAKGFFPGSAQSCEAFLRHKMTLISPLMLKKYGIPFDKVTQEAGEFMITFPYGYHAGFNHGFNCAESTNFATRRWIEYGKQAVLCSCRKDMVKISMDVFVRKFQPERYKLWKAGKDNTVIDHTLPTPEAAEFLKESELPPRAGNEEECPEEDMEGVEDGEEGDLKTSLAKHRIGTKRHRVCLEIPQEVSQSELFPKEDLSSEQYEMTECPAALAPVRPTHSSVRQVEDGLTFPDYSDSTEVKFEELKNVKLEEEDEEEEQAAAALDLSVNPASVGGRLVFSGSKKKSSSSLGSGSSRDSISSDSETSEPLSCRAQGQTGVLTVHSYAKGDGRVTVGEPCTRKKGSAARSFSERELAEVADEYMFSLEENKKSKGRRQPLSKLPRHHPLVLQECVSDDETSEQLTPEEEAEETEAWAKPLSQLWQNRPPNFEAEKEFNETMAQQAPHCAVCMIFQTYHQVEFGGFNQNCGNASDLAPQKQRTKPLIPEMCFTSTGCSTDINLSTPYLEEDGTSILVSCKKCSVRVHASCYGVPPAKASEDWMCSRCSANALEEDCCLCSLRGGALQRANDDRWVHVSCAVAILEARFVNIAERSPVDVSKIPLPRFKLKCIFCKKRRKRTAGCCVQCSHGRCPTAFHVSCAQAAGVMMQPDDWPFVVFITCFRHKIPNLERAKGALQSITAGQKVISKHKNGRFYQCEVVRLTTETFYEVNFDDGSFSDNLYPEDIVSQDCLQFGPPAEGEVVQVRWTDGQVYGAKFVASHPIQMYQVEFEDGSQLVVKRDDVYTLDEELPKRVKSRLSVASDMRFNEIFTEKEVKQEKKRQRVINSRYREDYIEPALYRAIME

BE(2)-C cells [1] = experiment: Cell migration (wound healing) assay with Ibidi Culture Inserts; assay type: cell-based, human; conditions: 67μM DMOG vs vehicle control
Protocol: Ibidi Culture Inserts (DKSH, Sydney, Australia) were placed in the center of 6 well plates. BE(2)-C cells were added into the wells outside the inserts. Sixteen hours later, the inserts were removed to create “wounds”. Photos of the “wounds” were taken under microscope, and the areas of the remaining “wounds” were measured and analyzed with Image J software (National Institutes of Health, USA).

BE(2)-C cells [2] = experiment: Cell proliferation, Alamar blue assay, BE(2)-C; assay type: cell-based, human; conditions: range of doses of DMOG, 72 hours
Protocol: Cell proliferation was examined with Alamar blue assays. Briefly, cells were plated into 96 well plates, transfected with various siRNAs or treated with different dosages of DMOG. Seventy-two hours later, cells were incubated with Alamar blue (Invitrogen) for 5 hours, and plates were then read on a micro-plate reader at 570/595 nm. Results were calculated according to the optical density absorbance units and expressed as percentage changes in cell numbers.

MALAT1 = experiment: Real-time RT-PCR of MALAT1 RNA expression in BE(2)-C cells; assay type: cell-based, human; conditions: 67μM DMOG, 48 hours, vs vehicle control
Description: Gene expression in tumor cells was examined by quantitative real-time RT-PCR as described previously. For the analysis of protein expression by immunoblot, cells were lysed, protein extracted and separated by gel electrophoresis. After western transfer, membranes were probed with mouse anti-N-Myc antibody (1:1000) (Santa Cruz Biotech, CA, USA) or rabbit anti-JMJD1A antibody (1:500) (Abcam, Cambridge, MA, USA), followed by horseradish peroxidase-conjugated anti-mouse (1:10000) or anti-rabbit (1:20000) antiserum (Santa Cruz Biotech). Protein bands were visualized with SuperSignal (Pierce, Rockford, IL, USA). The membranes were lastly re-probed with an anti-actin antibody (Sigma, St Louis, MO, USA) as loading controls.

BE(2)-C cells [3] = experiment: Matrigel cell invasion assay; assay type: cell-based, human; conditions: 67μM DMOG for 20 hours, invasion quantified 22 hours later, vs vehicle control
Protocol: BE(2)-C cells were transfected with siRNA or treated with JMJD1A inhibitors for 20 hours, and then detached and added onto BD Falcon Cell Culture Inserts coated with Matrigel inside BD BioCoat Matrigel Invasion Chambers (Becton Dickinson, Bedford, MA, USA). Cells invaded through Matrigel to the bottom side of the inserts were stained with toluidine blue, photographed under microscope and quantified.

## O=C(O)CNC(=O)C(=O)O [NOG, N-oxalylglycine]
JMJD2C
  Inhibition of other histone demethylases (JMJD2C), concentration in words: much higher concentrations
JARID1A
  Inhibition of other histone demethylases (JARID1A), concentration in words: much higher concentrations
JMJD2A
  Inhibition of other histone demethylases (JMJD2A), concentration in words: much higher concentrations

## COC(=O)CNC(=O)C(=O)OC [DMOG]
BE(2)-C cells [1]; 32 hours after removal of inserts
  Increase in area of remaining wounds: approximately 47%
BE(2)-C cells [1]; 48 hours after removal of inserts
  Increase in area of remaining wounds: ~895%
BE(2)-C cells [2]
  Cell proliferation (viable cells, Alamar blue): no effect
MALAT1
  MALAT1 gene expression: reduced
BE(2)-C cells [3]
  Reduction of cell invasion through Matrigel: approximately 52%
